The target of the assay is T1, canine TRPM8 (Canis lupus familiaris, UniProt Q1A7N1).
T1 construct: expressed in transfected cells
The experiment in a line: In Vitro Canine TRPM8 Functional Assay (intracellular Ca2+ fluorescence, icilin activation, HEK293 cells). The assay is classed as cell-based. Conditions: for IC50: HEK293 cells expressing canine TRPM8, icilin activation, individually measured values (batches/salt forms), read-out: IC50 (nM), in vitro TRP M8 Activity. As for the experimental part:
The changes in fluorescent signal were monitored by a fluorescence plate reader, either a FLIPR™ (Molecular Devices) or FDSS (Hamamatsu). […] Cells were maintained in 5% CO2 at 37° C. At 24 hr prior to assay, cells were seeded in black wall, clear-base poly-D-lysine coated 384-well plates (BD Biosciences, NJ, USA) at a density of 5,000 cells per well in culture medium and grown overnight in 5% CO2 at 37° C. On assay day, growth media was removed, and cells were loaded with Calcium 3 Dye (Molecular Devices) for 35 min at 37° C., under 5% CO2 and then incubated for 25 min at room temperature and atmosphere. Subsequently, cells were tested for agonist-induced increases in intracellular Ca^2+ levels using FLIPR™ or FDSS. […] Maximal fluorescence intensity (FI) achieved upon addition of icilin was exported from the FLIPR™ or FDSS software and further analyzed using GraphPad Prism 3.02 (Graph Pad Software Inc., CA, U.S.A.). Basal FI was subtracted prior to normalizing data to percent of maximal response. Curves were generated using the average of quadruplicate wells for each data point using nonlinear regression of either sigmoidal dose response or sigmoidal dose response (variable slope). Finally, IC50 values were calculated with the best-fit curve determined by GraphPad Prism

[1] abbreviates: HEK293, 0.2 μM test compound, individually measured values, read-out: % Inh (%) @0.2 μM, in vitro TRP M8 Activity.
Setting [2] is: HEK293, read-out: % Inh (%) @0.2 μM, in vitro TRP M8 Activity, 0.2 μM test compound, individually measured values.

Usually IC50 stands for the concentration at which inhibition is half-maximal.

Several values for one entry are separate records, joined by “and”; a condition that tells them apart may be missing. Equal values may be shown once. Where a name gives a salt, the structure may show the parent alone. Read-outs that look alike come from different tables or passages of the source.

T1 sequence (Q1A7N1 1-1104): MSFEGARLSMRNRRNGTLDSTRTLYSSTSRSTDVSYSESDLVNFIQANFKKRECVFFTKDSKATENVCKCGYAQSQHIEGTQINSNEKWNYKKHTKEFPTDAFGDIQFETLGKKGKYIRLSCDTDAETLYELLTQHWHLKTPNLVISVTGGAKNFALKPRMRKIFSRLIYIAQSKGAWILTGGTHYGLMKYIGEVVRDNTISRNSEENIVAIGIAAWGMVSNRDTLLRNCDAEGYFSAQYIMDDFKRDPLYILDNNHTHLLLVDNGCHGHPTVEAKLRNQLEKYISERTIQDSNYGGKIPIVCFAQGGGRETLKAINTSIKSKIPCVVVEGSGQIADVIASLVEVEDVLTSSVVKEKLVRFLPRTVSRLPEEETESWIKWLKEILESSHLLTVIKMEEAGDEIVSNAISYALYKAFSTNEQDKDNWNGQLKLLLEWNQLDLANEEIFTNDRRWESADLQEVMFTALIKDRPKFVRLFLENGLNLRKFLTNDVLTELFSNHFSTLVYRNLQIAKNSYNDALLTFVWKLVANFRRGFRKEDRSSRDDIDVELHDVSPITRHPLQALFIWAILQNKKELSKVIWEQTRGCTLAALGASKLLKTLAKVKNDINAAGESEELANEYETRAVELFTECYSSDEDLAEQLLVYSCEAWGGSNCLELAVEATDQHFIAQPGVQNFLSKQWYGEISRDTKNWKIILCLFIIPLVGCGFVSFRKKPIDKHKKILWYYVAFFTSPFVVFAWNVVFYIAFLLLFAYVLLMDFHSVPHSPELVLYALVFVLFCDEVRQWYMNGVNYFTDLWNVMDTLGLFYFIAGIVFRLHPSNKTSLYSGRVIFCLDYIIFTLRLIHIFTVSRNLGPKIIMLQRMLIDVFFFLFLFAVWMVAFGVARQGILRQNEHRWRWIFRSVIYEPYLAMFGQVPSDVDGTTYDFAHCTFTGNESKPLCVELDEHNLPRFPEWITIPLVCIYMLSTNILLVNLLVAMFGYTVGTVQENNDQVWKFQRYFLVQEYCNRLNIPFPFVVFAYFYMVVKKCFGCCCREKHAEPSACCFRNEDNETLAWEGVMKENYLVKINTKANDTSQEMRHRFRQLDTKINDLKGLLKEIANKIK

`CC(C)c1cc(-c2nc3cc(-c4cccc(C(F)(F)F)c4)ccc3[nH]2)on1` [Compound 7, 2-(3-Isopropylisoxazol-5-yl)-5-(3-trifluoromethylphenyl)-1H-benzimidazole sodium salt]: the inhibition at 0.2 µM under setting [1] was 10%.

Turning to `Cc1nc(C(C)(C)C)oc1-c1nc2cc(-c3ccccc3)cc(Cl)c2[nH]1` [Compound 180, 2-(2-tert-Butyl-4-methyl-oxazol-5-yl)-7-chloro-5-phenyl-1H-benzimidazole hydrochloride], the inhibition at 0.2 µM under setting [1] is 6%.

Regarding `Cn1nc(C(C)(C)C)cc1-c1nc2cc(-c3ccccc3C#N)ccc2[nH]1` [Compound 60, 2-[2-(5-tert-Butyl-2-methyl-2H-pyrazol-3-yl)-1H-benzimidazol-5-yl]-benzonitrile trifluoroacetic acid salt], the IC50 came out at 11.9 nM.

Turning to `Cn1nc(C(C)(C)C)c(C#N)c1-c1nc2cc(-c3c(F)cccc3C(F)(F)F)cc(Cl)c2[nH]1` [Compound 172, 3-tert-Butyl-5-[7-chloro-5-(2-fluoro-6-trifluoromethyl-phenyl)-1H-benzimidazol-2-yl]-1-methyl-1H-pyrazole-4-carbonitrile sodium salt], the concentration for half-maximal inhibition (IC50) stood at 8.7 nM. Moreover, under setting [1], the inhibition at 0.2 µM came out at 100%.

On to `CC(C)(C)c1cc(-c2nc3cc(-c4ccccc4OC(F)(F)F)cc(C(F)(F)F)c3[nH]2)on1` [Compound 143, 2-(3-tert-Butyl-isoxazol-5-yl)-5-(2-trifluoromethoxy-phenyl)-7-trifluoromethyl-1H-benzimidazole sodium salt], for which the half-inhibitory concentration (IC50) was 2.5 nM and 3.7 nM. In addition, under setting [2], the inhibition at 0.2 µM amounted to 99%.

With `CC(C)(C)c1ncc(-c2nc3cc(-c4ccccc4C(F)(F)F)ccc3[nH]2)s1` [Compound 100, 2-(2-tert-Butyl-thiazol-5-yl)-5-(2-trifluoromethyl-phenyl)-1H-benzimidazole hydrochloride], the concentration for half-maximal inhibition (IC50) came to 33.7 nM. In addition, under setting [1], the inhibition at 0.2 µM was determined as 91%.

As for `CCn1nc(C(C)(C)C)cc1-c1nc2cc(-c3ccccc3OC(F)(F)F)ccc2[nH]1` [Compound 45, 2-(5-tert-butyl-2-ethyl-2H-pyrazol-3-yl)-5-(2-trifluoromethoxyphenyl)-1H-benzimidazole sodium salt], the concentration for half-maximal inhibition (IC50) came to 51.2 nM.

In the case of `CC(CO)n1nc(C(C)(C)C)cc1-c1nc2cc(-c3ccccc3C(F)(F)F)ccc2[nH]1` (stereo not drawn) [Compound 101, 2-{3-tert-Butyl-5-[5-(2-trifluoromethylphenyl)-1H-benzimidazol-2-yl]-pyrazol-1-yl}-propan-1-ol hydrochloride], under setting [1], the inhibition at 0.2 µM came to 33%.

Consider `Cl.Cn1nc(C(C)(C)C)c(Cl)c1-c1nc2cc(-c3ccccc3F)cc(Cl)c2[nH]1` [Compound 114, 2-(5-tert-Butyl-4-chloro-2-methyl-2H-pyrazol-3-yl)-7-chloro-5-(2-fluoro-phenyl)-1H-benzimidazole sodium salt], for which the 50% inhibitory concentration (IC50) is 4.7 nM and 10.3 nM and 10.2 nM. Further, under “0.2 μM test compound, individually measured values, sodium salt, 0.2 µM”, the “% Inh (%) @0.2 μM, in vitro TRP M8 Activity” value was found to be 100%. Besides, the inhibition at 0.2 µM under setting [1] amounted to 99%.

As for `CC(C)(C)Cc1cc(-c2nc3ccc(-c4ccccc4C(F)(F)F)cc3[nH]2)on1` [Compound 20, 2-[3-(2,2-Dimethylpropyl)isoxazol-5-yl]-6-(2-trifluoromethylphenyl)-1H-benzimidazole hydrochloride], the IC50 worked out at 19 nM.

Regarding `Cn1nc(C(C)(C)C)nc1-c1nc2cc(-c3ccccc3C(F)(F)F)cc(C(F)(F)F)c2[nH]1` [Compound 192, 2-(5-tert-Butyl-2-methyl-2H-[1,2,4]triazol-3-yl)-7-trifluoromethyl-5-(2-trifluoromethyl-phenyl)-1H-benzimidazole sodium salt], the IC50 is 7.5 nM.

Regarding `CC(C)(C)c1cc(-c2nc3cc(-c4c(C(F)(F)F)cccc4C(F)(F)F)ccc3[nH]2)on1` [Compound 104, 5-(2,6-Bis-trifluoromethyl-phenyl)-2-(3-tert-butyl-isoxazol-5-yl)-1H-benzimidazole hydrochloride], the IC50 is 3.9 nM.

Turning to `COc1cccc(OC)c1-c1ccc2[nH]c(-c3cc(C(C)(C)C)no3)nc2c1` [Compound 63, 2-(3-tert-Butyl-isoxazol-5-yl)-5-(2,6-dimethoxy-phenyl)-1H-benzimidazole trifluoroacetic acid salt], the 50% inhibitory concentration (IC50) turned out to be 5.5 nM.

For `CCC(CC)c1cc(-c2nc3ccc(-c4ccccc4C(F)(F)F)cc3[nH]2)on1` [Compound 26, 2-[3-(1-Ethylpropyl)-isoxazol-5-yl]-6-(2-trifluoromethylphenyl)-1H-benzimidazole hydrochloride], the IC50 came out at 39 nM.

Regarding `Cc1ccccc1-c1ccc2[nH]c(-c3cc(C(C)(C)C)no3)nc2c1` [Compound 65, 2-(3-tert-Butyl-isoxazol-5-yl)-5-o-tolyl-1H-benzimidazole trifluoroacetic acid salt], the 50% inhibitory concentration (IC50) is 15.5 nM.

Consider `CC(C)(C)c1cc(-c2nc3cc(-c4ccccc4F)cc(C(F)(F)F)c3[nH]2)on1` [Compound 139, 2-(3-tert-Butyl-isoxazol-5-yl)-5-(2-fluoro-phenyl)-7-trifluoromethyl-1H-benzimidazole sodium salt], for which the concentration for half-maximal inhibition (IC50) is 5.6 nM and 12 nM. Also, the inhibition at 0.2 µM under setting [2] was found to be 99%.

`Cn1nc(C(F)(F)F)cc1-c1nc2cc(-c3ccccc3C(F)(F)F)ccc2[nH]1` [Compound 40, 2-(5-Trifluoromethyl-2-methyl-2H-pyrazol-3-yl)-5-(2-trifluoromethylphenyl)-1H-benzimidazole sodium salt]: the IC50 was determined as 81.5 nM.

With `Cn1nc(C(C)(C)C)c(C(F)(F)F)c1-c1nc2cc(-c3ccccc3Cl)cc(C(F)(F)F)c2[nH]1` [Compound 186, 2-(5-tert-Butyl-2-methyl-4-trifluoromethyl-2H-pyrazol-3-yl)-5-(2-chloro-phenyl)-7-trifluoromethyl-1H-benzimidazole sodium salt], the concentration for half-maximal inhibition (IC50) was found to be 20 nM. In addition, under setting [1], the inhibition at 0.2 µM was found to be 99%.

As for `Cc1oc(C(C)(C)C)nc1-c1nc2cc(-c3c(F)cccc3C(F)(F)F)cc(C(F)(F)F)c2[nH]1` [Compound 158, 2-(2-tert-Butyl-5-methyl-oxazol-4-yl)-5-(2-fluoro-6-trifluoromethyl-phenyl)-7-trifluoromethyl-1H-benzimidazole hydrochloride], the inhibition at 0.2 µM under setting [1] came to 72%.

`Cc1oc(C(C)(C)C)nc1-c1nc2cc(-c3ccccc3C(F)(F)F)cc(Cl)c2[nH]1` [Compound 165, 2-(2-tert-Butyl-5-methyl-oxazol-4-yl)-7-chloro-5-(2-trifluoromethyl-phenyl)-1H-benzimidazole hydrochloride]: the inhibition at 0.2 µM under setting [1] came out at 27%.

`Cn1nc(C(C)(C)C)c(C#N)c1-c1nc2cc(-c3c(F)cccc3F)cc(C(F)(F)F)c2[nH]1` [Compound 151, 3-tert-Butyl-5-[5-(2,6-difluoro-phenyl)-7-trifluoromethyl-1H-benzimidazol-2-yl]-1-methyl-1H-pyrazole-4-carbonitrile sodium salt]: the IC50 is 4.2 nM and 6 nM and 3.8 nM.

In the case of `COc1ccccc1-c1ccc2[nH]c(-c3cc(C(C)(C)C)no3)nc2c1` [Compound 8, 2-(3-tert-Butylisoxazol-5-yl)-5-(2-methoxyphenyl)-1H-benzimidazole sodium salt], the concentration for half-maximal inhibition (IC50) was 11.1 nM and 8 nM.

Regarding `CC(C)(C)c1cc(-c2nc3cc(-c4c(F)cccc4C(F)(F)F)ccc3[nH]2)on1` [Compound 82, 2-(3-tert-Butyl-isoxazol-5-yl)-5-(2-fluoro-6-trifluoromethyl-phenyl)-1H-benzimidazole hydrochloride], the IC50 was 11.6 nM and 1.8 nM.

In the case of `Cc1c(C(C)(C)C)nn(C)c1-c1nc2cc(-c3ccccc3Cl)ccc2[nH]1` [Compound 94, 2-(5-tert-Butyl-2,4-dimethyl-2H-pyrazol-3-yl)-5-(2-chloro-phenyl)-1H-benzimidazole hydrochloride], the half-maximal inhibitory concentration (IC50) is 4.5 nM.

For `Cc1oc(C(C)(C)C)nc1-c1nc2cc(-c3ccccc3F)cc(C(F)(F)F)c2[nH]1` [Compound 154, 2-(2-tert-Butyl-5-methyl-oxazol-4-yl)-5-(2-fluoro-phenyl)-7-trifluoromethyl-1H-benzimidazole hydrochloride], the inhibition at 0.2 µM under setting [1] came out at 57%.

For `Cc1c(C(C)(C)C)nn(C)c1-c1nc2cc(-c3ccccc3F)ccc2[nH]1` [Compound 93, 2-(5-tert-Butyl-2,4-dimethyl-2H-pyrazol-3-yl)-5-(2-fluoro-phenyl)-1H-benzimidazole hydrochloride], the IC50 turned out to be 10.9 nM.

As for `Cc1nc(C(C)(C)C)oc1-c1nc2cc(-c3ccccc3F)cc(Cl)c2[nH]1` [Compound 182, 2-(2-tert-Butyl-4-methyl-oxazol-5-yl)-7-chloro-5-(2-fluoro-phenyl)-1H-benzimidazole hydrochloride], the inhibition at 0.2 µM under setting [1] is 26%.

As to `Cn1nc(C2CCC2)cc1-c1nc2cc(-c3ccccc3C(F)(F)F)ccc2[nH]1` [Compound 37, 2-(5-Cyclobutyl-2-methyl-2H-pyrazol-3-yl)-5-(2-trifluoromethyl-phenyl)-1H-benzimidazole sodium salt], the half-inhibitory concentration (IC50) was found to be 55.9 nM.

On to `Cc1nc(C(C)(C)C)oc1-c1nc2cc(-c3ccccc3)cc(C(F)(F)F)c2[nH]1` [Compound 178, 2-(2-tert-Butyl-4-methyl-oxazol-5-yl)-5-phenyl-7-trifluoromethyl-1H-benzimidazole hydrochloride], for which the inhibition at 0.2 µM under setting [1] was 17%.
